Several values for one entry are separate records, joined by “and”; a condition that tells them apart may be missing. Equal values may be shown once. Where a name gives a salt, the structure may show the parent alone. Read-outs that look alike come from different tables or passages of the source.
Assays:
[1] = capillary depletion analysis after in situ brain perfusion; type: in vivo, mouse; design: [3H] ADMA and [14C] Sucrose uptake, homogenate / Difference (ADMA minus Sucrose), homogenate / [3H] ADMA and [14C] Sucrose uptake, supernatant / Difference (ADMA minus Sucrose), supernatant / uptake, homogenate / uptake, supernatant: unit not given here; details: 5ml/min; for Kp at 20 min, 62.5 nM / Kp at […] / Kp at 30 min, 62.5 nM / Kp at 10 min, 62.5 nM: male, BALB/c, mouse; for Kp at 30 min, 62.5 nM / Kp at 10 min, 62.5 nM: other: in situ brain perfusion
Experimental: The microvasculature within a sample of brain tissue can be separated from the brain parenchyma using capillary depletion analysis. Following perfusion, the remaining brain tissue after microdissection of the regions described above (typically 200–300 mg) underwent capillary depletion following a method modified for mouse. […]

[2] = system: [3H]-ADMA transport across the blood-brain and blood-CSF barriers; assay: cross-inhibition, in situ perfusion: [^3H]-ADMA with 100 μM unlabelled L-arginine; type: in vivo, mouse; details: male, Balb/c, mouse, other: in situ brain perfusion, with 100 µM unlabelled L-arginine, 10 mins, Balb/c ♂, 5ml/min
Experimental: Self-inhibition experiments were also performed. […] Cross-competition experiments were also performed.
The percentage change in the RTissue uptake values achieved in the absence or presence of an unlabelled inhibitor can be calculated by means of Eq 4.
%change=RTissue−RInhibition/RTissue×100 Eq 4
We define RInhibition as the RTissue uptake in the presence of an inhibitor in the artificial plasma.
A decrease in the uptake of radiolabelled solute in the presence of unlabelled inhibitor is indicative of a saturable influx transport system. Conversely, an increase in the uptake of radiolabelled solute in the presence of unlabelled inhibitor is indicative of a saturable efflux transport system.

[3] = 2.5 mins, Balb/c ♂, individual mouse
[4] = 20 mins, Balb/c ♂, individual mouse
[5] = 30 mins, Balb/c ♂, individual mice
[6] = CONTROL, 10 mins, Balb/c ♂, individual mouse
[7] = [3H] ADMA + [14C] Sucrose, 30 mins, Balb/c ♂, individual mice

## CN(C)C(N)=NCCC[C@H](N)C(=O)O [ADMA, N^G,N^G-dimethylarginine dihydrochloride]
[1]; [3]
  Difference (ADMA minus Sucrose), homogenate: 0.08009 and 0.1215 and 0.06334 and 0.05481 and 0.07702
  Difference (ADMA minus Sucrose), pellet: 0.01248 and 0.007546 and 0.01055 and 0.0124
  Difference (ADMA minus Sucrose), supernatant: 0.05051 and 0.03514 and 0.04142 and 0.05329
  [3H] ADMA and [14C] Sucrose uptake, homogenate: 0.09289 and 0.1482 and 0.07368 and 0.06461 and 0.09146
  [3H] ADMA and [14C] Sucrose uptake, pellet: 0.01492 and 0.009191 and 0.01385 and 0.01522
  [3H] ADMA and [14C] Sucrose uptake, supernatant: 0.06123 and 0.0402 and 0.05083 and 0.0645
[1]; [4]
  Difference (ADMA minus Sucrose), homogenate: 0.2153 and 0.186 and 0.3039 and 0.2292 and 0.1075
  Difference (ADMA minus Sucrose), pellet: 0.01581 and 0.02784 and 0.03159 and 0.04237 and 0.006518
  Difference (ADMA minus Sucrose), supernatant: 0.1074 and 0.1722 and 0.2036 and 0.1573 and 0.05863
  [3H] ADMA and [14C] Sucrose uptake, homogenate: 0.2383 and 0.2004 and 0.3388 and 0.2498 and 0.142
  [3H] ADMA and [14C] Sucrose uptake, pellet: 0.01706 and 0.03 and 0.03434 and 0.04519 and 0.01122
  [3H] ADMA and [14C] Sucrose uptake, supernatant: 0.1162 and 0.1882 and 0.2293 and 0.1698 and 0.07807
[1]; [5]
  Difference (ADMA minus Sucrose), homogenate: 0.07039 and 0.3122 and 0.07479 and 0.04539 and 0.1073
  Difference (ADMA minus Sucrose), pellet: 0.01163 and 0.01136 and 0.007805 and 0.01411
  Difference (ADMA minus Sucrose), supernatant: 0.1199 and 0.1088 and 0.02622 and 0.04075 and 0.06521
[1]; [6]
  Difference (ADMA minus Sucrose), homogenate: 0.2688 and 0.161 and 0.1425 and -0.07309
  Difference (ADMA minus Sucrose), pellet: 0.02507 and 0.05085 and 0.009734 and 0.01917 and -0.0657
  Difference (ADMA minus Sucrose), supernatant: 0.07602 and 0.1167 and 0.08919 and 0.1193 and 0.02984
  [3H] ADMA and [14C] Sucrose uptake, homogenate: 0.1657 and 0.3684 and 0.1901 and 0.1639 and 0.2325
  [3H] ADMA and [14C] Sucrose uptake, pellet: 0.02884 and 0.07512 and 0.03345 and 0.03555 and 0.0904
  [3H] ADMA and [14C] Sucrose uptake, supernatant: 0.1611 and 0.1028 and 0.139 and 0.1685
[1]; [7]
  uptake, homogenate: 0.08533 and 0.3484 and 0.1186 and 0.07545 and 0.1502
  uptake, pellet: 0.01575 and 0.016 and 0.01288 and 0.01992
  uptake, supernatant: 0.135 and 0.1332 and 0.05406 and 0.0758 and 0.09832
[1]; capillary depletion pellet (endothelial cell-enriched), Difference (ADMA minus Sucrose), pellet, 20 mins, mean
  Kp at 20 min, 62.5 nM: 0.0248
[1]; capillary depletion pellet (endothelial cell-enriched), [3H] ADMA and [14C] Sucrose uptake, pellet, 20 mins, mean
  Kp at 20 min, 62.5 nM: 0.0276
[1]; capillary depletion supernatant (brain parenchyma), Difference (ADMA minus Sucrose), supernatant, 2.5 mins, individual mouse
  Kp at […]: 0.0611
[1]; capillary depletion supernatant (brain parenchyma), Difference (ADMA minus Sucrose), supernatant, 2.5 mins, mean
  Kp at […]: 0.0483
[1]; capillary depletion supernatant (brain parenchyma), Difference (ADMA minus Sucrose), supernatant, 20 mins, mean
  Kp at 20 min, 62.5 nM: 0.14
[1]; capillary depletion supernatant (brain parenchyma), [3H] ADMA and [14C] Sucrose uptake, supernatant, 2.5 mins, individual mouse
  Kp at […]: 0.0737
[1]; capillary depletion supernatant (brain parenchyma), [3H] ADMA and [14C] Sucrose uptake, supernatant, 2.5 mins, mean
  Kp at […]: 0.0581
[1]; capillary depletion supernatant (brain parenchyma), [3H] ADMA and [14C] Sucrose uptake, supernatant, 20 mins, mean
  Kp at 20 min, 62.5 nM: 0.156
[1]; capillary depletion supernatant (brain parenchyma), Difference (ADMA minus Sucrose), supernatant, 30 mins, Balb/c ♂, mean
  Kp at 30 min, 62.5 nM: 0.0722
[1]; capillary depletion supernatant (brain parenchyma), Difference (ADMA minus Sucrose), supernatant, CONTROL, 10 mins, Balb/c ♂, mean
  Kp at 10 min, 62.5 nM: 0.0862
[1]; capillary depletion supernatant (brain parenchyma), [3H] ADMA + [14C] Sucrose, 30 mins, Balb/c ♂, mean, read-out: uptake, supernatant
  Kp at 30 min, 62.5 nM: 0.0993
[1]; capillary depletion supernatant (brain parenchyma), [3H] ADMA and [14C] Sucrose uptake, supernatant, CONTROL, 10 mins, Balb/c ♂, individual mouse
  Kp at 10 min, 62.5 nM: 0.119
[1]; capillary depletion supernatant (brain parenchyma), [3H] ADMA and [14C] Sucrose uptake, supernatant, CONTROL, 10 mins, Balb/c ♂, mean
  Kp at 10 min, 62.5 nM: 0.138
[1]; endothelial cell-enriched pellet (capillary depletion), Difference (ADMA minus Sucrose), pellet, 2.5 mins, individual mouse
  Kp at […]: 0.0108
[1]; endothelial cell-enriched pellet (capillary depletion), Difference (ADMA minus Sucrose), pellet, 2.5 mins, mean
  Kp at […]: 0.0108
[1]; endothelial cell-enriched pellet (capillary depletion), [3H] ADMA and [14C] Sucrose uptake, pellet, 2.5 mins, individual mouse
  Kp at […]: 0.0124
[1]; endothelial cell-enriched pellet (capillary depletion), [3H] ADMA and [14C] Sucrose uptake, pellet, 2.5 mins, mean
  Kp at […]: 0.0131
[1]; endothelial cell-enriched pellet (capillary depletion), Difference (ADMA minus Sucrose), pellet, 30 mins, Balb/c ♂, individual mice
  Kp at 30 min, 62.5 nM: 0.0153
[1]; endothelial cell-enriched pellet (capillary depletion), Difference (ADMA minus Sucrose), pellet, 30 mins, Balb/c ♂, mean
  Kp at 30 min, 62.5 nM: 0.012
[1]; endothelial cell-enriched pellet (capillary depletion), Difference (ADMA minus Sucrose), pellet, CONTROL, 10 mins, Balb/c ♂, mean
  Kp at 10 min, 62.5 nM: 0.00783
[1]; endothelial cell-enriched pellet (capillary depletion), [3H] ADMA + [14C] Sucrose, 30 mins, Balb/c ♂, individual mice, read-out: uptake, pellet
  Kp at 30 min, 62.5 nM: 0.0184
[1]; endothelial cell-enriched pellet (capillary depletion), [3H] ADMA + [14C] Sucrose, 30 mins, Balb/c ♂, mean, read-out: uptake, pellet
  Kp at 30 min, 62.5 nM: 0.0166
[1]; endothelial cell-enriched pellet (capillary depletion), [3H] ADMA and [14C] Sucrose uptake, pellet, CONTROL, 10 mins, Balb/c ♂, mean
  Kp at 10 min, 62.5 nM: 0.0527
[1]; whole-brain homogenate (capillary depletion), Difference (ADMA minus Sucrose), homogenate, 2.5 mins, mean
  Kp at […]: 0.0793
[1]; whole-brain homogenate (capillary depletion), Difference (ADMA minus Sucrose), homogenate, 20 mins, mean
  Kp at 20 min, 62.5 nM: 0.208
[1]; whole-brain homogenate (capillary depletion), [3H] ADMA and [14C] Sucrose uptake, homogenate, 2.5 mins, mean
  Kp at […]: 0.0942
[1]; whole-brain homogenate (capillary depletion), [3H] ADMA and [14C] Sucrose uptake, homogenate, 20 mins, mean
  Kp at 20 min, 62.5 nM: 0.234
[1]; whole-brain homogenate (capillary depletion), Difference (ADMA minus Sucrose), homogenate, 30 mins, Balb/c ♂, mean
  Kp at 30 min, 62.5 nM: 0.122
[1]; whole-brain homogenate (capillary depletion), Difference (ADMA minus Sucrose), homogenate, CONTROL, 10 mins, Balb/c ♂, individual mouse
  Kp at 10 min, 62.5 nM: 0.136
[1]; whole-brain homogenate (capillary depletion), Difference (ADMA minus Sucrose), homogenate, CONTROL, 10 mins, Balb/c ♂, mean
  Kp at 10 min, 62.5 nM: 0.127
[1]; whole-brain homogenate (capillary depletion), [3H] ADMA + [14C] Sucrose, 30 mins, Balb/c ♂, mean, read-out: uptake, homogenate
  Kp at 30 min, 62.5 nM: 0.156
[1]; whole-brain homogenate (capillary depletion), [3H] ADMA and [14C] Sucrose uptake, homogenate, CONTROL, 10 mins, Balb/c ♂, mean
  Kp at 10 min, 62.5 nM: 0.224
[2]; caudate nucleus, Difference (ADMA minus Sucrose), caudate nucleus, + 100uM Arg, mean
  Kp at 10 min, 62.5 nM: 0.0481
[2]; caudate nucleus, [3H] ADMA + [14C] Sucrose + 100uM Arg, individual mice, read-out: uptake into caudate nucleus
  Kp at 10 min, 62.5 nM: 0.0565
[2]; caudate nucleus, [3H] ADMA + [14C] Sucrose + 100uM Arg, mean, read-out: uptake into caudate nucleus
  Kp at 10 min, 62.5 nM: 0.0664
[2]; cerebellum, Difference (ADMA minus Sucrose), cerebellum, + 100uM Arg, mean
  Kp at 10 min, 62.5 nM: 0.0445
[2]; cerebellum, [3H] ADMA + [14C] Sucrose + 100uM Arg, mean, read-out: uptake into cerebellum
  Kp at 10 min, 62.5 nM: 0.0673
[2]; choroid plexus, Difference (ADMA minus Sucrose), choroid plexus, + 100uM Arg, individual mice
  Kp at 10 min, 62.5 nM: 0.469

Reference: paper PMC11501026, “L-Arginine and asymmetric dimethylarginine (ADMA) transport across the mouse blood-brain and blood-CSF barriers: Evidence of saturable transport at both interfaces and CNS to blood efflux” (PLOS ONE, 2024)
